Measured values published in ChEMBL document CHEMBL4041544, “Discovery of new selective glucocorticoid receptor agonist leads” (Bioorg Med Chem Lett, 2017).

Legend:
[1] = Stability in human liver microsomes assessed as drug recovery after 30 mins; format: ADME, microsome; conditions: read-out: Drug recovery
[2] = molecular target: T1, Glucocorticoid receptor (Homo sapiens, UniProt P04150); assay: Transactivation activity at glucocorticoid receptor in human HeLa cells assessed as induction of MMTV promoter activity by luciferase reporter gene assay; format: cell-based
T1 sequence (P04150 whole entry): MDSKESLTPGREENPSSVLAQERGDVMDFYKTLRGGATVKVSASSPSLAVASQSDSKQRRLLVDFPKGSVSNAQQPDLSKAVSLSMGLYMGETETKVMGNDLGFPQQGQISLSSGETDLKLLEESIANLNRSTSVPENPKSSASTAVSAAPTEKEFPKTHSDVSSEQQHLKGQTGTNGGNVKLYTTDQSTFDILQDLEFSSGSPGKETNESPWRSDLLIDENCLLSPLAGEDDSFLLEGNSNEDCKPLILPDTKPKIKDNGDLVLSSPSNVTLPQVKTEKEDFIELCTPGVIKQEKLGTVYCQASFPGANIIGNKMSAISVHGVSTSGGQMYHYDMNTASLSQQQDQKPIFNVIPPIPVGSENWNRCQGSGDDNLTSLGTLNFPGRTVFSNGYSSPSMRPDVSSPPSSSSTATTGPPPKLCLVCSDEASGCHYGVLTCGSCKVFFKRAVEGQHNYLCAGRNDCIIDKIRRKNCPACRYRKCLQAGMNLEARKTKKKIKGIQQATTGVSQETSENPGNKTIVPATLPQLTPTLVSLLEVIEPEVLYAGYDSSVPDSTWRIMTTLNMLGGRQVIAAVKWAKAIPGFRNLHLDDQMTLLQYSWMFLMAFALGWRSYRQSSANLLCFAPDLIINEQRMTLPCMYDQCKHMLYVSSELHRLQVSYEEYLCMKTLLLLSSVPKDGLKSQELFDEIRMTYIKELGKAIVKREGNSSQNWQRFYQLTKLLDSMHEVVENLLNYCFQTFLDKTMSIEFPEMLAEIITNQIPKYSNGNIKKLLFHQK

[3] = molecular target: T2, Androgen receptor (Homo sapiens, UniProt P10275); assay: Binding affinity to recombinant human androgen receptor expressed in baculovirus infected sf9 cells
T2 sequence (P10275 whole entry): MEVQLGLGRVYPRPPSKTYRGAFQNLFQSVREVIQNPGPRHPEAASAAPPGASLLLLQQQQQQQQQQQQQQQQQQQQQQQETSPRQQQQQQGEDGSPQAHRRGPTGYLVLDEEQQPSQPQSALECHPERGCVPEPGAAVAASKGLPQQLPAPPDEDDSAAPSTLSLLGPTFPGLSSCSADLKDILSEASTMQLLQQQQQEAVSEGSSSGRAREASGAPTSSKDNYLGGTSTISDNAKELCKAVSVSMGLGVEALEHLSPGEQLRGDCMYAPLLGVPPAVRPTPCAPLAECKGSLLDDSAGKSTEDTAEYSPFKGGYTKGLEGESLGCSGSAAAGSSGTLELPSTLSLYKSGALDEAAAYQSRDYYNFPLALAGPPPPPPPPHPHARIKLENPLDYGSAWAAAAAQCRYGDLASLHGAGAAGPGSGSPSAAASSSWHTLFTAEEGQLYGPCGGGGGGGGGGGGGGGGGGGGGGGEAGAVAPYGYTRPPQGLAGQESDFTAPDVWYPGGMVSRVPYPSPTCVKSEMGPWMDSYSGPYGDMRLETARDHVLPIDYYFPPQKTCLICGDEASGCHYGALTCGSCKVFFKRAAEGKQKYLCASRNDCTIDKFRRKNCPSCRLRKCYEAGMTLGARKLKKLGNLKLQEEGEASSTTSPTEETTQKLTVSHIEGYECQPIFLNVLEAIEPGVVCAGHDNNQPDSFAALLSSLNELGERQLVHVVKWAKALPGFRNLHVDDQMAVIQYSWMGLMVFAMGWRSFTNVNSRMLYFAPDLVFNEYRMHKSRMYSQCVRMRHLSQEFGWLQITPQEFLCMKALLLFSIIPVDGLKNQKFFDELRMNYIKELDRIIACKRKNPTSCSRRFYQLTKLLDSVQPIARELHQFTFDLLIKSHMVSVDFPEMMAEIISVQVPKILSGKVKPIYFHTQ

[4] = molecular target: T3, Mineralocorticoid receptor (Homo sapiens, UniProt P08235); assay: Binding affinity to recombinant human mineralocorticoid receptor expressed in baculovirus infected sf9 cells
T3 sequence (P08235 whole entry): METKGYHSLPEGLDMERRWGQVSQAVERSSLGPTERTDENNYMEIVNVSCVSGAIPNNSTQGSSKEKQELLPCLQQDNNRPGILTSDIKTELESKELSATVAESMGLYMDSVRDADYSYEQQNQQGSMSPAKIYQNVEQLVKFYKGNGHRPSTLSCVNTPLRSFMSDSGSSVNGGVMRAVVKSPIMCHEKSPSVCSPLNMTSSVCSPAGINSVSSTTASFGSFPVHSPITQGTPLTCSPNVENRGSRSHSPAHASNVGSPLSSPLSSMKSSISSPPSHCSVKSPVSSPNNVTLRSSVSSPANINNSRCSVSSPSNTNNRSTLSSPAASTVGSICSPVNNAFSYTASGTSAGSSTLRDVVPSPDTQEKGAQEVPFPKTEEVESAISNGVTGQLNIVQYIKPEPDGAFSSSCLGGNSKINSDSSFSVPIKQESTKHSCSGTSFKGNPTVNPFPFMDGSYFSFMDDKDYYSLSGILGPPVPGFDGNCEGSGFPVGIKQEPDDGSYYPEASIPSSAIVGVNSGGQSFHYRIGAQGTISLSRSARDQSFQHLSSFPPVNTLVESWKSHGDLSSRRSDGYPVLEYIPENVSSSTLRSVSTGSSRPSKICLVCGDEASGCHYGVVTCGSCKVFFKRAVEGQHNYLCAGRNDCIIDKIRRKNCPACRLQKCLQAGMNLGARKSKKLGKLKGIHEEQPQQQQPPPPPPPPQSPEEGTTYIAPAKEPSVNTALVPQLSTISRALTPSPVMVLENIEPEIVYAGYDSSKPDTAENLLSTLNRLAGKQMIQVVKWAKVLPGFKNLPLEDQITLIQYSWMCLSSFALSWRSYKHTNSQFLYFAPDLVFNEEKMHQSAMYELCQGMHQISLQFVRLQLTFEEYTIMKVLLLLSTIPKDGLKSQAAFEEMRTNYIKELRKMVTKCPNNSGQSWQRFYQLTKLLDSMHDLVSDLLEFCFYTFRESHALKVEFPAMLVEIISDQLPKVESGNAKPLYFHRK

[5] = molecular target: T4, Progesterone receptor (Homo sapiens, UniProt P06401); assay: Binding affinity to recombinant human progesterone receptor expressed in baculovirus infected sf9 cells
T4 sequence (P06401 whole entry): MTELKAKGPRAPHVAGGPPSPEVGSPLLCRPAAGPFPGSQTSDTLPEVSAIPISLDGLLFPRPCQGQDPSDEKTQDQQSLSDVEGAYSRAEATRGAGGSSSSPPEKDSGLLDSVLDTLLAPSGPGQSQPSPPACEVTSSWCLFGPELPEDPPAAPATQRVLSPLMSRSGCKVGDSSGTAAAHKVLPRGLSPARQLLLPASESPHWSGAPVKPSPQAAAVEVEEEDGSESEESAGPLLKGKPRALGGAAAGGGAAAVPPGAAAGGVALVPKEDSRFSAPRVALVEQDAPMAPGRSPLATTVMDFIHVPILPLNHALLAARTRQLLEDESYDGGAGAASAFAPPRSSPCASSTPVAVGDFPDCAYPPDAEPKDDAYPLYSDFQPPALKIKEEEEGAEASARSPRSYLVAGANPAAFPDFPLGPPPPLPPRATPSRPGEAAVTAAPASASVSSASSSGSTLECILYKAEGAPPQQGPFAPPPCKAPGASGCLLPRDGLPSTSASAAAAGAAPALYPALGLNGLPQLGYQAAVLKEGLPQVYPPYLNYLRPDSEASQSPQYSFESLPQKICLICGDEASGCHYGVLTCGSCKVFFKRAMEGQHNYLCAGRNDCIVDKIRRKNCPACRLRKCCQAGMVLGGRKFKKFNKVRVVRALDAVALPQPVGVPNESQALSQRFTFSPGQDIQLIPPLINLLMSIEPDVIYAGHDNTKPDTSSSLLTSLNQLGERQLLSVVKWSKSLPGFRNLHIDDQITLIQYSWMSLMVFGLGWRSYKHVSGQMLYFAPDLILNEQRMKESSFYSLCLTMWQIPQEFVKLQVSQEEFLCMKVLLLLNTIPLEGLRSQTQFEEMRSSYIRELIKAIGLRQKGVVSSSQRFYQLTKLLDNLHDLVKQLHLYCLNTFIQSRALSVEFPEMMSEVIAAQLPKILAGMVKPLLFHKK

[6] = molecular target: T1, Glucocorticoid receptor; assay: Transrepression activity at glucocorticoid receptorin human HeLa cells assessed as inhibition of TPA-induced collagenase promoter activity by luciferase reporter gene assay; format: cell-based
[7] = molecular target: T1, Glucocorticoid receptor; assay: Transrepression activity at glucocorticoid receptor in human THP1 cells assessed as receptor-mediated anti-inflammatory activity by measuring inhibition of LPS-induced IL-8 production; format: cell-based
[8] = molecular target: T1, Glucocorticoid receptor; assay: Binding affinity to recombinant human glucocorticoid receptor expressed in baculovirus infected sf9 cells
[9] = test system: Rattus norvegicus; assay: Anti-inflammatory activity in po dosed Wistar rat assessed as inhibition of croton oil-induced ear edema; format: functional
[10] = test system: Rattus norvegicus; assay: Anti-inflammatory activity in Brown Norway rat assessed as inhibition of TMA-induced ear edema at 30 mg/kg, po relative to control; format: functional
[11] = test system: Rattus norvegicus; assay: Anti-inflammatory activity in Wistar rat assessed as inhibition of croton oil-induced ear edema at 30 mg/kg, po relative to control; format: functional
[12] = test system: Rattus norvegicus; assay: Anti-inflammatory activity in po dosed Brown Norway rat assessed as inhibition of TMA-induced ear edema; format: functional

| SMILES | remaining at 0.5 h [1] [%] | pEC50 [2] | IC50 [3] [nM] | IC50 [4] [nM] | IC50 [5] [nM] | IC50 [6] [nM] | IC50 [7] [nM] | IC50 [8] [nM] | ED50 [9] [mg/kg] | Imax [10] [%] | Imax [11] [%] | ED50 [12] [mg/kg] |
| --- | --- | --- | --- | --- | --- | --- | --- | --- | --- | --- | --- | --- |
| Cc1ccc2c(NCC(O)(CC(C)(C)c3cc(F)ccc3O)C(F)(F)F)cccc2n1 (stereo not given) | 31 | 7.9 | – | – | – | – | – | – | – | – | – | – |
| CCSC[C@@](O)([C@@H](Nc1cccc2nc(C)ccc12)c1ccc(OC)c(F)c1Cl)C(F)(F)F | – | – | > 1000 | > 1000 | 794 | – | – | – | – | – | – | – |
| CC[C@@H]1C[C@](O)(C(F)(F)F)[C@@H](Nc2cccc3[nH]c(=O)ccc23)c2cc(F)c(F)c(O)c21 | – | – | > 1000 | > 1000 | > 1000 | – | – | – | – | – | – | – |
| Cc1ncc2c(N[C@H]3c4ccc(F)c(O)c4C(C)(C)C[C@]3(O)C(F)(F)F)cc(F)cc2n1 | – | 6.8 | > 1000 | > 1000 | > 1000 | 39.8 | 39.8 | 126 | – | – | – | – |
| CC[C@@H]1C[C@](O)(C(F)(F)F)[C@@H](Nc2cccc3nc(C)ccc23)c2ccc(F)c(O)c21 | 86 | 7.9 | > 1000 | > 1000 | 794 | 5.01 | 5.01 | 12.6 | – | – | – | – |
| CC(C)(CC(O)(CNc1cccc2c(=O)[nH]ccc12)C(F)(F)F)c1cccc(F)c1O (stereo not given) | 13 | 7.6 | > 1000 | > 1000 | 200 | 3.98 | 3.98 | 2.51 | – | – | – | – |
| CC1(C)C[C@](O)(C(F)(F)F)[C@@H](Nc2cccc3[nH]c(=O)ccc23)c2ccc(F)c(O)c21 | – | 7.6 | 794 | > 1000 | 794 | 15.8 | 15.8 | 15.8 | – | – | – | – |
| Cc1ccc2c(N[C@H]3c4ccc(F)c(O)c4[C@H](C)C[C@]3(O)C(F)(F)F)cccc2n1 | – | 7.4 | > 1000 | > 1000 | > 1000 | 20 | 20 | 15.8 | – | – | – | – |
| C=C(C)C[C@@](O)([C@@H](Nc1cccc2c(=O)[nH]ccc12)c1cc(Br)ccc1O)C(F)(F)F (racemic) | – | 6.8 | > 1000 | > 1000 | 631 | 20 | 20 | 63.1 | – | – | – | – |
| CC1(C)C[C@](O)(C(F)(F)F)[C@@H](Nc2cccc3c(=O)[nH]ccc23)c2ccc(F)c(O)c21 (racemic) | 48 | 7.9 | 316 | > 1000 | 794 | 6.31 | 6.31 | 20 | – | – | – | – |
| C[C@@H]1C[C@H]2[C@@H]3CCC4=CC(=O)C=C[C@]4(C)[C@@]3(F)[C@@H](O)C[C@]2(C)[C@@]1(O)C(=O)CO [DEXAMETHASONE] | – | – | – | – | > 1000 | – | – | – | – | – | – | – |
| C[C@]12C=CC(=O)C=C1CC[C@@H]1[C@@H]2[C@@H](O)C[C@@]2(C)[C@H]1CC[C@]2(O)C(=O)CO [PREDNISOLONE] | – | – | – | – | – | – | – | – | 15.7 | 107 | 83 | 6.7 |
